Test results taken from publication PMC12752606, “METTL10‐Mediated PIAS3 Methylation Links Purine Metabolism to Gastric Cancer Progression” (Advanced Science, 2025).
“And” between values parts separate entries of the source, which are not always exact repeats. Identical values can stand only once. Like-named read-outs stand apart in the source and are kept apart here.

How the values were obtained:
[1] = system: METTL10 protein levels in MKN45 and AGS cells; experiment: Immunoblotting of METTL10 protein levels in treated GC cells; format: cell-based; details: 20 µM, not rescued by MG132
Protocol: (§1) Protein extraction from tissues or cells was performed by lysis buffer (20 mM Tris‐HCl (pH 7.5), 150 mM NaCl, 1 mM EDTA, 1 mM EGTA, 2.5 mM sodium pyrophosphate, 1 mM β‐glycerolphosphate, 1% Triton X‐100) supplemented with 1% phenylmethylsulfonyl fluoride (PMSF; Solarbio, P0100) and protease inhibitor cocktail (Apexbio, K1007) and lysed at 4 °C for 60 min, followed by centrifugation at 12000 g for 15 min at 4 °C. For Immunoblotting, the protein concentration was determined using the Pierce BCA Protein Assay Kit (Thermo Fisher Scientific, A55864). The protein samples were denatured by boiling in SDS‐PAGE loading buffer. For immunoprecipitation, antibodies were incubated with Dynabeads Protein G (Thermo, 10004D) at 4 °C for 4 h. The supernatant was then incubated with magnetic beads conjugated with antibodies or anti‐FLAG‐M2 magnetic beads (Sigma–Aldrich, M8823) at 4 °C overnight. Following incubation, the magnetic beads were washed three times with lysis buffer and then boiled in SDS‐PAGE loading buffer. The proteins were separated by sodium dodecyl sulfate polyacrylamide gel electrophoresis (SDS‐PAGE) with One‐Step PAGE Gel Fast Preparation Kit (Vazyme), and then transferred to the PVDF Membrane (Bio‐Rad). After blocking with a protein‐free rapid blocking buffer (Epizyme, PS108P) for 15 min, the membranes were incubated with primary antibodies at 4 °C overnight. […]

[2] = system: PIAS3-K442 methylation in MKN45 and AGS cells; experiment: Immunoblotting of PIAS3-K442 methylation in GC cell lines; format: cell-based; details: 20 µM or higher, 24-hour treatment
Protocol: as §1

[3] = Plasma pharmacokinetics after IV and PO administration; format: in vivo, male Sprague–Dawley rats; details: for concentration at 5 min: male, Sprague-Dawley, rat, plasma, iv
Protocol: LZQ‐02‐023‐1 was administered to male Sprague–Dawley (SD) rats (n = 3 per group) via intravenous injection at a dose of 1 mg/kg or oral gavage at a dose of 10 mg/kg. Blood samples were collected at predetermined time points, and plasma concentrations of LZQ‐02‐023‐1 were determined using a validated LC‐MS/MS method. Briefly, working solutions of the analyte were prepared by diluting stock solutions with 50% acetonitrile in water to achieve serial concentrations (10, 20, 50, 100, 200, 500, 1000, 5000, and 10 000 ng/mL). Calibration standards were prepared by spiking 5 µL of working solution into 50 µL of blank SD rat plasma, resulting in final concentrations of 1, 2, 5, 10, 20, 50, 100, 500, and 1000 ng/mL in a total volume of 55 µL. Quality control (QC) samples were independently prepared at four concentrations (2, 5, 50, and 800 ng/mL) using blank SD rat plasma, following the same procedure as for the calibration standards. On the day of analysis, 55 µL of each calibration standard, QC sample, or unknown sample (prepared by mixing 50 µL of SD rat plasma with 5 µL of blank solution) was added to 200 µL of acetonitrile:methanol (1:1, v/v) containing an internal standard (IS) mixture for protein precipitation. The samples were vortexed for 30 s, centrifuged at 4000 rpm for 15 min at 4 °C, and the resulting supernatant was diluted threefold with water. A 10 µL aliquot of the diluted supernatant was injected into an AB Sciex Triple Quad 5500 LC‐MS/MS system for quantitative analysis. Pharmacokinetic parameters, including the maximum plasma concentration (Cmax), time to reach Cmax (Tmax), elimination half‐life (t1⁄2), area under the plasma concentration‐time curve (AUC0–t and AUC0–∞), clearance (CL), and volume of distribution (Vd), were calculated using noncompartmental analysis (NCA) in Phoenix WinNonlin 8.3 (Certara; Table S3, Supporting Information).

[4] = IV 1 mg/kg, individual rats R01-R03, 1 mg/kg
[5] = PO 10 mg/kg, individual rats R04-R06, 10 mg/kg

Q: With Cc1ccc(Nc2ncc3c(n2)N(C)C(=O)N(c2cccc(N)c2)C3)cn1 [LZQ-02-023-01, Three‐(3‐aminophenyl)‐1‐methyl‐7‐((6‐methylpyridin‐3‐yl)amino)‐3,4‐dihydropyrimido [4,5‐d] pyrimidin‐2 (1H)‐one] as the molecule, how does the METTL10 protein levels [1] read?
A: significant reduction

Q: And the “Methylation of PIAS3-K442 in GC cell lines” value [2]?
A: decreased

Q: And the “AUC_%Extrap_obs, mean” value ([3]; IV 1 mg/kg)?
A: 1.09%

Q: What about the “C0, mean” value ([3]; IV 1 mg/kg) of the same molecule?
A: 2250 ng/mL

Q: What about the “Vss_obs, mean” value ([3]; IV 1 mg/kg) of the same molecule?
A: 0.660 L/kg

Q: What about the Plasma concentration ([3]; IV 1 mg/kg, 5 min, individual rats R01-R03, 1 mg/kg) of the same molecule?
A: 532 ng/mL and 563 ng/mL

Q: What about the Plasma concentration ([3]; IV 1 mg/kg, 0.25 h, individual rats R01-R03, 1 mg/kg) of the same molecule?
A: 35.5 ng/mL and 26.8 ng/mL

Q: And the Plasma concentration ([3]; IV 1 mg/kg, 0.5 h, individual rats R01-R03, 1 mg/kg)?
A: 12.4 ng/mL and 16.0 ng/mL

Q: And the Plasma concentration ([3]; IV 1 mg/kg, 1 h, individual rats R01-R03, 1 mg/kg)?
A: 4.29 ng/mL and 4.07 ng/mL

Q: And the Plasma concentration ([3]; IV 1 mg/kg, 2 h, individual rats R01-R03, 1 mg/kg)?
A: 2.11 ng/mL and 1.86 ng/mL

Q: What about the Plasma concentration ([3]; IV 1 mg/kg, 4 h, individual rats R01-R03) of the same molecule?
A: BLOQ (BLOQ = Below quantifiable limit of 1 ng/mL.)

Q: And the Plasma concentration ([3]; IV 1 mg/kg, 8 h, individual rats R01-R03)?
A: BLOQ (BLOQ = Below quantifiable limit of 1 ng/mL.)

Q: And the Plasma concentration ([3]; IV 1 mg/kg, 24 h, individual rats R01-R03)?
A: BLOQ (BLOQ = Below quantifiable limit of 1 ng/mL.)

Q: And the AUCInf [3, 4]?
A: 170 ng·h/mL and 195 ng·h/mL

Q: What about the AUC_%Extrap_obs [3, 4] of the same molecule?
A: 1.46% and 1.11% and 0.712%

Q: And the AUClast [3, 4]?
A: 169 ng·h/mL and 193 ng·h/mL

Q: And the C0 [3, 4]?
A: 2058 ng/mL and 2578 ng/mL

Q: And the Cl_obs [3, 4]?
A: 97.8 mL/min/kg and 85.6 mL/min/kg

Q: And the MRTInf_obs [3, 4]?
A: 7.2 min and 5.85 min

Q: And the T1/2 [3, 4]?
A: 37.4 min and 31 min

Q: What about the Vss_obs [3, 4] of the same molecule?
A: 0.772 L/kg and 0.707 L/kg and 0.501 L/kg

Q: And the “AUC_%Extrap_obs, mean” value ([3]; PO 10 mg/kg)?
A: 12.8%

Q: What about the “F (bioavailability)” value ([3]; PO 10 mg/kg vs IV 1 mg/kg, individual rats R04-R06) of the same molecule?
A: 2.37% and 1.27%

Q: And the Plasma concentration ([3]; PO 10 mg/kg, 0.25 h, individual rats R04-R06, 10 mg/kg)?
A: 39.0 ng/mL and 24.0 ng/mL and 8.83 ng/mL

Q: What about the Plasma concentration ([3]; PO 10 mg/kg, 0.5 h, individual rats R04-R06, 10 mg/kg) of the same molecule?
A: 20.0 ng/mL and 20.1 ng/mL

Q: And the Plasma concentration ([3]; PO 10 mg/kg, 1 h, individual rats R04-R06, 10 mg/kg)?
A: 7.33 ng/mL and 6.63 ng/mL and 3.54 ng/mL

Q: What about the Plasma concentration ([3]; PO 10 mg/kg, 2 h, individual rats R04-R06, 10 mg/kg) of the same molecule?
A: 3.36 ng/mL and 12.9 ng/mL and 3.14 ng/mL

Q: What about the Plasma concentration ([3]; PO 10 mg/kg, 4 h, individual rats R04-R06, 10 mg/kg) of the same molecule?
A: 2.02 ng/mL and 1.36 ng/mL

Q: And the Plasma concentration ([3]; PO 10 mg/kg, 8 h, individual rats R04-R06)?
A: BLOQ (BLOQ = Below quantifiable limit of 1 ng/mL.)

Q: What about the Plasma concentration ([3]; PO 10 mg/kg, 24 h, individual rats R04-R06) of the same molecule?
A: BLOQ (BLOQ = Below quantifiable limit of 1 ng/mL.)

Q: And the AUCInf [3, 5]?
A: 42.0 ng·h/mL and 22.6 ng·h/mL

Q: What about the AUC_%Extrap_obs [3, 5] of the same molecule?
A: 15.0% and 5.19% and 18.1%

Q: What about the AUClast [3, 5] of the same molecule?
A: 27.6 ng·h/mL and 39.8 ng·h/mL and 18.5 ng·h/mL

Q: And the Cmax [3, 5]?
A: 24.0 ng/mL and 20.1 ng/mL

Q: And the MRTInf_obs [3, 5]?
A: 97.2 min and 134 min

Q: What about the T1/2 [3, 5] of the same molecule?
A: 101 min and 44.9 min and 125 min

Q: And the Tmax [3, 5]?
A: 30 min

Q: What about the concentration at 5 min ([3]; 1 mg/kg, IV 1 mg/kg, 5 min, individual rats R01-R03, read-out: Plasma concentration) of the same molecule?
A: 504 ng/mL

Q: What about the concentration at 5 min ([3]; 1 mg/kg, IV 1 mg/kg, 5 min, read-out: Plasma concentration, mean) of the same molecule?
A: 533 ng/mL
